Tests used:
[1] = test system: retinal pigment epithelial cell line ARPE-19; experiment: Reduction of reactive oxygen species (DCF-DA fluorescence microscopy) in H2O2-treated retinal pigment epithelial cells; format: cell-based; details: ARPE-19, H2O2 50 µM; metformin 1 mM (positive control)
Excerpt: (§1) Reactive oxygen species were generated by treating retinal pigment epithelial cell line ARPE-19 with hydrogen peroxide (H2O2).

[2] = test system: mouse model of age-related macular degeneration; experiment: Short-term administration in NaIO3 mouse model of age-related macular degeneration (phalloidin-stained RPE/choroid flat mount); format: in vivo, C57BL/6 mice; details: NaIO3 20 mg/kg IV; metformin 4 mg/mL in drinking water for 7 days before NaIO3
Excerpt: Mice injected with sodium iodate (NaIO3) are used as a representative model of age-related macular degeneration. A mouse model of age-related macular degeneration was established by injecting NaIO3 into C57BL/6 mice, thereby inducing oxidative stress specific to retinal pigment epithelial cells and causing damage.

[3] = test system: retinal pigment epithelial cell line ARPE-19; experiment: Epithelial-mesenchymal transition (cadherin 1 / vimentin, confocal microscopy) in H2O2-treated retinal pigment epithelial cells; format: cell-based; details: ARPE-19, H2O2 50 µM; metformin 1 mM (positive control)
Excerpt: as §1

How did the DCF-DA fluorescence intensity [1] turn out when `CN(C)C(=N)N=C(N)N` [metformin] was run?
Its DCF-DA fluorescence intensity is “decreased”.

What about the tight junction structure [2] of the same compound?
The tight junction structure was “maintained”.

What about the epithelial-mesenchymal transition [3] of the same compound?
The epithelial-mesenchymal transition was “reduced”.
